Measurements published in PMC3692398 (Biochemical pharmacology, 2013).
Where two headings read alike, the source gives them in different places.

Legend:
[1] = target: T1, hDAT (Homo sapiens, UniProt Q01959); experiment: Inhibition of [125I]RTI-55 binding, HEK-hDAT membranes; conditions: read-out: Inhibition of [125I]RTI-55 binding Ki ± sem, hDAT; HEK-hDAT membranes
[2] = target: T2, hNET (Homo sapiens, UniProt P23975); experiment: biochemical; type: binding; conditions: read-out: Inhibition of [125I]RTI-55 binding Ki ± sem, hNET
T2 sequence (P23975 whole entry): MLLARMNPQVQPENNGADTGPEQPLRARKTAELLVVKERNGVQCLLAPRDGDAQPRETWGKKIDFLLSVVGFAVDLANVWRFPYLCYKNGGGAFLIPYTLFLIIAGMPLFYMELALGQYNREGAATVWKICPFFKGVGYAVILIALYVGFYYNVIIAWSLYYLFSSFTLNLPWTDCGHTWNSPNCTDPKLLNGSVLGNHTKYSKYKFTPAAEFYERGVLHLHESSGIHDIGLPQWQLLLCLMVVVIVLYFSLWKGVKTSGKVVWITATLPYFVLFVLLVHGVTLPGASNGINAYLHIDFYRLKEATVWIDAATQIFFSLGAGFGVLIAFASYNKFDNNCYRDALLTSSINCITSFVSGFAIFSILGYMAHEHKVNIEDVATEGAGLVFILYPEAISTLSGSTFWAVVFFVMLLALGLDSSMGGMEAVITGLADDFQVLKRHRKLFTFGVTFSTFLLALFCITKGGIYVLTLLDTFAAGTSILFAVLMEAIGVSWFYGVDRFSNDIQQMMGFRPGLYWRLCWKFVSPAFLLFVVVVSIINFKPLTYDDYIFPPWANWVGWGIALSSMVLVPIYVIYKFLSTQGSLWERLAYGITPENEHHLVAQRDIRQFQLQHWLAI

[3] = target: T1, hDAT; experiment: Inhibition of [3H]DA uptake, intact HEK-hDAT cells; type: cell-based; conditions: for IC50: read-out: Inhibition of [3H]neurotransmitter uptake IC50 ± sem, hDAT [3H]DA, 20 nM [3H]DA, intact cells
[4] = target: T3, hSERT (Homo sapiens, UniProt P31645); experiment: Inhibition of [3H]5-HT uptake, intact HEK-hSERT cells; type: cell-based; conditions: for IC50: read-out: Inhibition of [3H]neurotransmitter uptake IC50 ± sem, hSERT [3H]5-HT, 20 nM [3H]5-HT, intact cells
T3 sequence (P31645 whole entry): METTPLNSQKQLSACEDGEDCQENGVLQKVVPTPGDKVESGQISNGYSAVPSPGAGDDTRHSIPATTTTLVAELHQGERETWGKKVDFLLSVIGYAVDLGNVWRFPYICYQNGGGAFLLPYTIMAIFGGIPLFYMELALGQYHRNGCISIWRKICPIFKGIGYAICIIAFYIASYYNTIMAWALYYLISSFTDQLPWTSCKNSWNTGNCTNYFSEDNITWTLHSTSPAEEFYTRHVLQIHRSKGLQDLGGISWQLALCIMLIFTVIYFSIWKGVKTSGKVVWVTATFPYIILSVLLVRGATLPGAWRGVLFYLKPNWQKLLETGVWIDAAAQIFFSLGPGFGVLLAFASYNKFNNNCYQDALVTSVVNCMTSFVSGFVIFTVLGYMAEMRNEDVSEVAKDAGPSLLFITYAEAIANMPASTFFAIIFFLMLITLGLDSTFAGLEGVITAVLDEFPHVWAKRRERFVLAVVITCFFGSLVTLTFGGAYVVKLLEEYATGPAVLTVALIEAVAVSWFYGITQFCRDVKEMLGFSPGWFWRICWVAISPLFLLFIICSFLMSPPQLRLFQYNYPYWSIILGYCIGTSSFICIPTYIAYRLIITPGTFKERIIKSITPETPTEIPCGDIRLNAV

[5] = target: T2, hNET; experiment: cell-based; type: cell-based; conditions: for IC50: read-out: Inhibition of [3H]neurotransmitter uptake IC50 ± sem, hNET [3H]NE
[6] = target: T1, hDAT; experiment: Superfusion release of preloaded [3H]DA from HEK-hDAT cells; type: cell-based; conditions: for EC50: read-out: Drug-induced release of [3H]neurotransmitter EC50 ± sem, hDAT [3H]DA, superfusion, AUC
[7] = target: T3, hSERT; experiment: Superfusion release of preloaded [3H]5-HT from HEK-hSERT cells; type: cell-based; conditions: for EC50: read-out: Drug-induced release of [3H]neurotransmitter EC50 ± sem, hSERT [3H]5-HT, superfusion, AUC
[8] = target: T2, hNET; experiment: Superfusion release of preloaded [3H]NE from HEK-hNET cells; type: cell-based; conditions: for EC50: read-out: Drug-induced release of [3H]neurotransmitter EC50 ± sem, hNET [3H]NE, superfusion, AUC; for % maximum release ± sem, hNET [3H]NE: relative to maximal AUC induced by METH (0.3 or 1 µM)
[9] = target: T4, hVMAT2 (Homo sapiens, UniProt Q05940); experiment: Inhibition of [3H]5-HT uptake, HEK-hVMAT2 membrane preparation; type: biochemical; conditions: read-out: Inhibition of [3H]5-HT uptake IC50 ± sem, hVMAT2; 40 nM [3H]5-HT, 2 mM MgATP
T4 sequence (Q05940 whole entry, the tested form may be a part): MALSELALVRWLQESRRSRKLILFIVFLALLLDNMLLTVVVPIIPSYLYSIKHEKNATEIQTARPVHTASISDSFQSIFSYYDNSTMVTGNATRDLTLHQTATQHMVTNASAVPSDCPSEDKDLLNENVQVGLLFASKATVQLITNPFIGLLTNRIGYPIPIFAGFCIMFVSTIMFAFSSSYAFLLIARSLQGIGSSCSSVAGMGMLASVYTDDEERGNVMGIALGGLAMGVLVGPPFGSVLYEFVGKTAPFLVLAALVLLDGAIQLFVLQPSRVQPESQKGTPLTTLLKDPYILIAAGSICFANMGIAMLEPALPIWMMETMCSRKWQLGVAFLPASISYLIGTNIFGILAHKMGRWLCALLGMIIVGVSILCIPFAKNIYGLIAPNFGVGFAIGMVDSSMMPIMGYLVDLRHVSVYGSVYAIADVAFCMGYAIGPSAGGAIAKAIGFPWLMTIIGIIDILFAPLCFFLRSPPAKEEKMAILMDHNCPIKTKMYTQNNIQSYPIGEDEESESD

[10] = target: T4, hVMAT2; experiment: Superfusion release of preloaded [3H]NE from HEK-hVMAT2 cells; type: cell-based; conditions: for EC50: read-out: Drug-induced release of [3H]NE EC50 ± sem, hVMAT2, superfusion
[11] = target: T5, h5-HT1A receptor (Homo sapiens, UniProt P08908); experiment: [3H]8-OH-DPAT binding, HEK-h5-HT1A; conditions: read-out: Inhibition of radioligand binding Ki ± sem, h5-HT1A [3H]8OH-DPAT
T5 sequence (P08908 1-422): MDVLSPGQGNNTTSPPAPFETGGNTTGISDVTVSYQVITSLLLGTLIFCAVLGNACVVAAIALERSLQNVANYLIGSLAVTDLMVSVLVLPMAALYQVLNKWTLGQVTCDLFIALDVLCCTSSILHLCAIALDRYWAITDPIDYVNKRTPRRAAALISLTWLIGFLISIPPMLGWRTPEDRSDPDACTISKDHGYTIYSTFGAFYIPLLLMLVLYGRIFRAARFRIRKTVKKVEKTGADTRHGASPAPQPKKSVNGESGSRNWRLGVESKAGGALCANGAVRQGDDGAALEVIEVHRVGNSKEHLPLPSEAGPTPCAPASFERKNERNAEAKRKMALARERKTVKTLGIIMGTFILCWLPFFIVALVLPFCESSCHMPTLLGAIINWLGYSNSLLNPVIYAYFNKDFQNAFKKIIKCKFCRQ

[12] = target: T6, h5-HT2A receptor (Homo sapiens, UniProt P28223); experiment: [125I]DOI binding, HEK-h5-HT2A; conditions: read-out: Inhibition of radioligand binding Ki ± sem, h5-HT2A [125I]DOI
T6 sequence (P28223 whole entry): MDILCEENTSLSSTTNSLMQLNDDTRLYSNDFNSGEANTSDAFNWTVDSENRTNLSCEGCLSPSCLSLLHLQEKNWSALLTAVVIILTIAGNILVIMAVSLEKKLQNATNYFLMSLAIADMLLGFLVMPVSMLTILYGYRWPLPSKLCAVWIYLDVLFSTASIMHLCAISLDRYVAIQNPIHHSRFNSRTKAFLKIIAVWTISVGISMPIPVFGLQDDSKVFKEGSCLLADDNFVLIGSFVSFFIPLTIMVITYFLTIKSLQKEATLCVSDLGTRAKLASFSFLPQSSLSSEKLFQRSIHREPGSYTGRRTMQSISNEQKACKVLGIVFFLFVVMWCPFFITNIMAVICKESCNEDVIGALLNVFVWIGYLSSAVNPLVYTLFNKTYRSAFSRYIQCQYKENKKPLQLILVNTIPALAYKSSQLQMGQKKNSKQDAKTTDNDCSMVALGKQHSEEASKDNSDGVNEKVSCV

[13] = target: T7, h5-HT2C receptor (Homo sapiens, UniProt P28335); experiment: biochemical; type: binding; conditions: read-out: Inhibition of radioligand binding Ki ± sem, h5-HT2C [125I]DOI
T7 sequence (P28335 33-458): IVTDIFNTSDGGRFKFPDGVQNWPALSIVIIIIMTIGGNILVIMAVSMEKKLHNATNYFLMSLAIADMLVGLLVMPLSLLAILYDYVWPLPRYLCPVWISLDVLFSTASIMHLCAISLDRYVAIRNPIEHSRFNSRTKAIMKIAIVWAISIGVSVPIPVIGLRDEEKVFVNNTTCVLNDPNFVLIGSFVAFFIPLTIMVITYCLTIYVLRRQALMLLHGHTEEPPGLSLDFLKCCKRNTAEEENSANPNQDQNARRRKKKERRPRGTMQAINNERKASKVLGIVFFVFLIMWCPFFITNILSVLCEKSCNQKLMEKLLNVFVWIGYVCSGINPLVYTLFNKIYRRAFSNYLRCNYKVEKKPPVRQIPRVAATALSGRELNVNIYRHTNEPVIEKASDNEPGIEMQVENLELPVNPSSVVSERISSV

[14] = target: T5, h5-HT1A receptor; experiment: Stimulation of [35S]GTPγS binding, HEK-h5-HT1A membranes; type: biochemical; conditions: for h5-HT1A Stimulation of [35S]GTPγS binding % maximum stimulation ± sem: normalized to the maximal stimulation by 5-HT; for EC50: read-out: h5-HT1A Stimulation of [35S]GTPγS binding EC50 ± sem
[15] = target: T6, h5-HT2A receptor; experiment: Inhibition of 5-HT-stimulated IP-1 formation; type: cell-based; conditions: 100 nM 5-HT; for h5-HT2A Inhibition of 5-HT-stimulated IP-1 formation % maximum inhibition ± sem: normalized to maximal inhibition by ketanserin (10 µM); for IC50: read-out: h5-HT2A Inhibition of 5-HT-stimulated IP-1 formation IC50 ± sem
[16] = target: T7, h5-HT2C receptor; experiment: Inhibition of 5-HT-stimulated IP-1 formation; type: cell-based; conditions: 100 nM 5-HT; normalized to maximal inhibition by SB242084 (1 µM)
[17] = target: hSigma1 receptor (Homo sapiens, UniProt Q99720); experiment: [3H]; type: binding; conditions: read-out: Inhibition of [3H]pentazocine binding Ki ± sem, hSigma1
Chain of hSigma1 receptor (Q99720 whole entry): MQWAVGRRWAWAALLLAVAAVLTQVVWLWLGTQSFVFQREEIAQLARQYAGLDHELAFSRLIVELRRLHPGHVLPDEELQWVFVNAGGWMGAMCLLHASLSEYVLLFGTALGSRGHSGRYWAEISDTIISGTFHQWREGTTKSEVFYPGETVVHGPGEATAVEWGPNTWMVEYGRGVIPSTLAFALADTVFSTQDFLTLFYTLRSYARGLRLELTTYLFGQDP

[18] = target: human DA D1 receptor (Homo sapiens, UniProt P21728); experiment: [3H]SCH23390 binding, LhD1 cells; conditions: test drugs up to the maximal concentration tested (10 µM)
Chain of human DA D1 receptor (P21728 whole entry): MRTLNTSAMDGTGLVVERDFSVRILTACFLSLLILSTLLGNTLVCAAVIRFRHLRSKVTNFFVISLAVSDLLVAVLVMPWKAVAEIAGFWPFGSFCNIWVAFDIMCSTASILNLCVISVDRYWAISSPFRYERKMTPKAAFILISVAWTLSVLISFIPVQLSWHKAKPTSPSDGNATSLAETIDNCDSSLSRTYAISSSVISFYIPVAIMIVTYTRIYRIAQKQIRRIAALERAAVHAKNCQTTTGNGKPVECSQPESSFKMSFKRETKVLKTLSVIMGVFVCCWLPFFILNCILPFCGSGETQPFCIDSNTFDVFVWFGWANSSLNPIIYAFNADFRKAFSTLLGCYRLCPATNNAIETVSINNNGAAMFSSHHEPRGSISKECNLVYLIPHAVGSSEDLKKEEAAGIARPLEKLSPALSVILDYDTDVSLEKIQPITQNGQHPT

[19] = target: human DA D2 receptor (Homo sapiens, UniProt P14416); type: binding; conditions: test drugs up to the maximal concentration tested (10 µM)
Chain of human DA D2 receptor (P14416 whole entry): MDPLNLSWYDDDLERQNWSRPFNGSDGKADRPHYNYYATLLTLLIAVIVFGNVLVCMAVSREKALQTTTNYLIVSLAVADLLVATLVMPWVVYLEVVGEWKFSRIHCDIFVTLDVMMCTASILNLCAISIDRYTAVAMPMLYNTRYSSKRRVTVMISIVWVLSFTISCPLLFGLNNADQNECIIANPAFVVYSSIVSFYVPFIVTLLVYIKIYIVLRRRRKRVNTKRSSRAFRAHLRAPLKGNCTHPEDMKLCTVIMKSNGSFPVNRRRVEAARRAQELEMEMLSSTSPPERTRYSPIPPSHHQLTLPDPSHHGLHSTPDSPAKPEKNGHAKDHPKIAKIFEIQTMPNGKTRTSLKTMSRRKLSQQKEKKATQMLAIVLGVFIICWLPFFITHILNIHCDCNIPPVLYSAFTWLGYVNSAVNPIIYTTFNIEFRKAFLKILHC

[20] = target: human DA D3 receptor (Homo sapiens, UniProt P35462); experiment: [3H]YM-09151-2 binding, CHOp-D3 cells; conditions: test drugs up to 10 µM; words give concentration range, 'low' = low nanomolar
Chain of human DA D3 receptor (P35462 whole entry): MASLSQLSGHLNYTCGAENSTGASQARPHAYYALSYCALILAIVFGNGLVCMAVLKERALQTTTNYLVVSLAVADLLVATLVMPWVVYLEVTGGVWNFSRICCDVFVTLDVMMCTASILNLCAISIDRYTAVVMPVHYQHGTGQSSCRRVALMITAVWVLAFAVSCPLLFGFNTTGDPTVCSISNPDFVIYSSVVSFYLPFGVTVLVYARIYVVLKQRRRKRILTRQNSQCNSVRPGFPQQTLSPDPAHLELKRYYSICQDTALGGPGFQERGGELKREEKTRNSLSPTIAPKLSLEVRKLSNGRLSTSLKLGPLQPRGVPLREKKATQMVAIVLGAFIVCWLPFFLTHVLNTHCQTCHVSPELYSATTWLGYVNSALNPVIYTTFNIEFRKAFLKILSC

[21] = target: T8, human D4.4 receptor (Homo sapiens, UniProt P21917); type: binding; conditions: test drugs up to 10 µM; words give concentration range, 'low' = low nanomolar
T8 sequence (P21917 1-419): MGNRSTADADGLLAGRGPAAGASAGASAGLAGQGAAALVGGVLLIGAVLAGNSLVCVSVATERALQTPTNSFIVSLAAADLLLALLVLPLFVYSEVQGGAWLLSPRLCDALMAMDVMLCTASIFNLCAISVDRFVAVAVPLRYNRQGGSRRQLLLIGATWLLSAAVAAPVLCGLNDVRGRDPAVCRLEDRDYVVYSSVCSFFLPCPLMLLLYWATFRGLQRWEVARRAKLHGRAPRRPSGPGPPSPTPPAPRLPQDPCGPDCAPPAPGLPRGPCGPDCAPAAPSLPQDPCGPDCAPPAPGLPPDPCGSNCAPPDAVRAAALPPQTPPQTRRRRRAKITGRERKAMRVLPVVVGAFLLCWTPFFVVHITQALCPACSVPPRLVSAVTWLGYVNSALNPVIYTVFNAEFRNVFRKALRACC

[22] = target: T7, h5-HT2C receptor; type: cell-based
[23] = target: T4, hVMAT2; experiment: Inhibition of [3H]DHTB binding, HEK-hVMAT2 membranes; conditions: read-out: Inhibition of [3H]DHTB binding Ki ± sem, hVMAT2

T1 sequence (Q01959 whole entry): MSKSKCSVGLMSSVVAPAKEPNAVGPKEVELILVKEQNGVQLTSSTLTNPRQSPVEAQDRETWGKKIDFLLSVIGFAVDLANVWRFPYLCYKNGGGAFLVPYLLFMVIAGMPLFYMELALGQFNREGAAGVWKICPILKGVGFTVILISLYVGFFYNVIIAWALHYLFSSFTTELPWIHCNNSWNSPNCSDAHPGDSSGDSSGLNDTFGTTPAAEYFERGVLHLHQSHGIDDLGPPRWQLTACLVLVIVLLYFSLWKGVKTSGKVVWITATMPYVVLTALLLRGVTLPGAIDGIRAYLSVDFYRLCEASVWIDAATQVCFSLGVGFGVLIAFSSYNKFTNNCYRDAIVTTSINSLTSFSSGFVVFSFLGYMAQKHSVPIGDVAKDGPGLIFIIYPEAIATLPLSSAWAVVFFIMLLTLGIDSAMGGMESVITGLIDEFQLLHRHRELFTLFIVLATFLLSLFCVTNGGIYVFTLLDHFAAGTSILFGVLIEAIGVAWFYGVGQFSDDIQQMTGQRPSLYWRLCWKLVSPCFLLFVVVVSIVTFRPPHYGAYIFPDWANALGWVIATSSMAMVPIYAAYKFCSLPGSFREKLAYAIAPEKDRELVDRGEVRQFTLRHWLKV

SMILES	Ki [1]	IC50 [3]	IC50 [4]	EC50 [6]	EC50 [7]	EC50 [8]	% maximum release ± sem, hNET [3H]NE [8]	IC50 [9]	EC50 [10]	Ki [11]	Ki [12]	h5-HT1A Stimulation of [35S]GTPγS binding % maximum stimulation ± sem [14]	EC50 [14]	h5-HT2A Inhibition of 5-HT-stimulated IP-1 formation % maximum inhibition ± sem [15]	IC50 [15]	h5-HT2C Inhibition of 5-HT-stimulated IP-1 formation % maximum inhibition ± sem [16]	Ki [17]	affinity for the [3H]SCH23390 binding site, DA D1 receptor [18]	affinity for the [3H]YM-09151-2 binding site, DA D2 receptor [19]	affinity for the [3H]YM-09151-2 binding site, DA D3 receptor [20]	other results
CNC(C)C(=O)c1ccccc1 (stereo not shown) [Methcathinone, methcathinone, reference compound]	3.3 ± 1.1 µM	0.144 ± 0.032 µM	13.5 ± 2.9 µM	3.57 ± 0.68 µM	> 100 µM	0.228 ± 0.066 µM	149 ± 42%	117 ± 57 µM	11.6 ± 7.3 µM	29.1 ± 3.6 µM	29.2 ± 3.3 µM	52.8 ± 6.2%	49 ± 21 µM	99.63 ± 0.37%	40 ± 9.5 µM	17.5 ± 4.0%	117 ± 40 µM	no measurable affinity	no measurable affinity	no measurable affinity	Ki ([2]; HEK-hNET membranes): 4.48 ± 0.49 µM; ratio of binding Ki to uptake IC50, hDAT ([3]; [125I]RTI-55 Ki / [3H]DA uptake IC50): 23; ratio of binding Ki to uptake IC50, hSERT ([4]; [125I]RTI-55 Ki / [3H]5-HT uptake IC50): > 7.4; ratio of binding Ki to uptake IC50, hNET ([5]; [125I]RTI-55 Ki / [3H]NE uptake IC50): 144; IC50 ([5]; 20 nM [3H]NE, intact cells): 0.0311 ± 0.0051 µM; % maximum release ± sem, hDAT [3H]DA [6]: 83.3 ± 4.9%; % maximum release ± sem, hSERT [3H]5-HT ([7]; relative to maximal AUC induced by PCA (10 µM)): 21.1 ± 9.8%; Release of [3H]NE % maximum release ± sem or range, hVMAT2 [10]: 42 ± 10%; Ki [13]: 16 ± 4.2 µM; affinity for the [3H]YM-09151-2 binding site, DA D4.4 receptor [21]: no measurable affinity; h5-HT2C agonist activity, inositol monophosphate ([22]; data not shown): partial agonists with midmicromolar potencies
CNC(C)Cc1ccc2c(c1)OCO2 (stereo not shown) [MDMA, 3,4-methylenedioxymethylamphetamine, reference compound]	22 ± 5.1 µM	0.201 ± 0.047 µM	0.109 ± 0.017 µM	4.8 ± 2.3 µM	1.04 ± 0.27 µM	0.57 ± 0.19 µM	116 ± 11%	5.8 ± 1.4 µM	114 ± 40 µM	14.1 ± 2.4 µM	8.3 ± 1.2 µM	65.8 ± 8.5%	35 ± 14 µM	96.3 ± 3.8%	189 ± 52 µM	9 ± 12%	19.4 ± 6.3 µM	no measurable affinity	no measurable affinity	no measurable affinity	Ki [2]: 30.9 µM; IC50 [5]: 0.0242 µM; % maximum release ± sem, hDAT [3H]DA ([6]; relative to maximal AUC induced by METH (1 or 10 µM)): 104 ± 14%; % maximum release ± sem, hSERT [3H]5-HT [7]: 74 ±12%; Ki [23]: 661 ± 58 µM; affinity for the [3H]YM-09151-2 binding site, DA D4.4 receptor [21]: no measurable affinity; h5-HT2C agonist activity, inositol monophosphate [22]: full agonist with low micromolar potency
